Measurements as given in paper PMC11116084 (Journal of Applied Glycoscience, 2024).

Test system: ALMAN (Allium cepa α-mannosidase)
Assay: p-nitrophenol release, absorption at […] nm
Format: biochemical
Conditions: 20 mM sodium acetate pH 4.0, 40 °C (standard assay)

O=[N+]([O-])c1ccc(O[C@H]2O[C@H](CO)[C@@H](O)[C@H](O)[C@@H]2O)cc1 [pNP-α-Man]
Km: 1690 µM
